{"source": "patent KR20210021686A", "about": "“비천연 아미노산-결합 단백질, 및 이를 코딩하는 유전자가 도입된 형질전환체” (priority 2019, dated 2021)", "target": "T1, Escherichia coli leucine-binding protein (류신-결합 단백질, LBP), wild type (WT), SEQ ID NO: 46, YFP-LBP fusion sensor (Escherichia coli, UniProt P04816)", "T1 construct": "made in house; host or cells: E. coli C321.ΔA (co-transformed with pEvol-CouA-RS)", "T1 sequence (P04816 24-369)": "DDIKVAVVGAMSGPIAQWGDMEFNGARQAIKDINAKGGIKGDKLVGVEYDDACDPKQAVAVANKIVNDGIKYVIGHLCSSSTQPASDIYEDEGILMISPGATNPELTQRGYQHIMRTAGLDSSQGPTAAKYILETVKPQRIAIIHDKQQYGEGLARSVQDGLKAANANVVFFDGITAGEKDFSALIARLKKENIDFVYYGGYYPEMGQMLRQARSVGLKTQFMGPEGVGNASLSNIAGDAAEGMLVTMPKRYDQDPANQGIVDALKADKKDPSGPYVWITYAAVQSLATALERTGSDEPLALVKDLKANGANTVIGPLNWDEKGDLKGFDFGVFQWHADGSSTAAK", "assay": "FRET titration, dissociation constant (Table 1), WT LBP", "conditions": "50 mM NaH2PO4, 50 mM NaCl, pH 9.0", "data": [{"smiles": "CC(C)C[C@H](N)C(=O)O", "note": "[L-Leu, L-류신]", "values": [{"measurement": "Kd", "value": 410, "unit": "nM"}]}]}
